The values that follow come from ChEMBL document CHEMBL3045534, “Synthesis and Acaricidal Activity of N-(1,3,4-Thiadiazol-2-yl)carboxamides” (2003).

A word on the mortality: it is the percentage killed.

What all share (format): functional
Assay [1] has as its system Tetranychus urticae. Put plainly: Acaricidal activity against Tetranychus urticae (two-spotted spider mite) assessed as mite mortality at 500 ppm relative to untreated control.
The test system of assay [2] is Tetranychus urticae. Kind of assay: Acaricidal activity against Tetranychus urticae (two-spotted spider mite) assessed as mite mortality at 200 ppm relative to untreated control.
Assay [3] has as its system Tetranychus urticae. Kind of assay: Acaricidal activity against Tetranychus urticae (two-spotted spider mite) assessed as mite mortality at 12.5 ppm relative to untreated control.
Assay [4] relates to Tetranychus urticae. Kind of assay: Acaricidal activity against Tetranychus urticae (two-spotted spider mite) assessed as mite mortality at 50 ppm relative to untreated control.
The test system of assay [5] is Tetranychus urticae. Kind of assay: Acaricidal activity against Tetranychus urticae (two-spotted spider mite) assessed as mite mortality at 3.13 ppm relative to untreated control.

`CCCC(Br)C(=O)Nc1nnc(C(F)(F)F)s1` (stereo not given): the mortality at 500 ppm in the assay with Tetranychus urticae [1] was 30%. In addition, the mortality at 200 ppm in the assay with Tetranychus urticae [2] was 0%.

Turning to `CC(C)CC(Br)C(=O)Nc1nnc(C(F)(F)F)s1` (stereo not given), the mortality at 500 ppm in the assay on Tetranychus urticae [1] was 0%.

`O=C(CBr)Nc1nnc(C(F)(F)F)s1`: the mortality at 500 ppm in the assay with Tetranychus urticae [1] turned out to be 0%.

On to `CC(C)(C)C(Br)C(=O)Nc1nnc(C(F)(F)C(F)(F)C(F)(F)F)s1` (stereo not given), for which the mortality at 12.5 ppm in the assay with Tetranychus urticae [3] is 30%. In addition, the mortality at 500 ppm in the assay with Tetranychus urticae [1] was found to be 80%. For the same compound, in the assay with Tetranychus urticae [4], the mortality at 50 ppm worked out at 30%. Further, in the assay with Tetranychus urticae [2], the mortality at 200 ppm came out at 30%.

As to `CC(C)(C)C(Br)(Br)C(=O)Nc1nnc(C(F)(F)F)s1`, the mortality at 12.5 ppm with Tetranychus urticae [3] came to 30%. Moreover, the mortality at 500 ppm with Tetranychus urticae [1] turned out to be 100%. Also, the mortality at 50 ppm with Tetranychus urticae [4] is 100%. Moreover, the mortality at 200 ppm in the assay on Tetranychus urticae [2] was determined as 100%.

As to `CC(C)C(Br)C(=O)Nc1nnc(C(F)(F)F)s1` (stereo not given), the mortality at 500 ppm with Tetranychus urticae [1] is 100%. For the same compound, the mortality at 200 ppm in the assay with Tetranychus urticae [2] was 30%.

Consider `Cc1nnc(NC(=O)C(Br)C(C)(C)C)s1` (stereo not given), for which the mortality at 500 ppm with Tetranychus urticae [1] turned out to be 0%.

As for `CC(C)(C)C(Br)(Br)C(=O)Nc1nnc(C(F)(F)C(F)(F)C(F)(F)C(F)(F)F)s1`, the mortality at 12.5 ppm in the assay with Tetranychus urticae [3] worked out at 30%. In the assay with Tetranychus urticae [1], the mortality at 500 ppm amounted to 100%. The mortality at 50 ppm in the assay with Tetranychus urticae [4] was found to be 100%. In addition, in the assay on Tetranychus urticae [2], the mortality at 200 ppm was found to be 100%.

Regarding `CC(CC(Br)C(=O)Nc1nnc(C(F)(F)F)s1)C1CCCCC1` (stereo not given), the mortality at 500 ppm in the assay on Tetranychus urticae [1] came to 30%. Besides, the mortality at 200 ppm with Tetranychus urticae [2] was 0%.

Regarding `CC(C)(C)CC(=O)Nc1nnc(C(F)(F)F)s1`, in the assay with Tetranychus urticae [1], the mortality at 500 ppm was found to be 0%.

On to `CCCCC(Br)C(=O)Nc1nnc(C(F)(F)F)s1` (stereo not given), for which the mortality at 500 ppm with Tetranychus urticae [1] was found to be 0%.

Turning to `CC(C)(C)C(Br)(Br)C(=O)Nc1nnc(C(F)(F)C(F)(F)C(F)(F)F)s1`, in the assay with Tetranychus urticae [3], the mortality at 12.5 ppm amounted to 0%. Besides, the mortality at 500 ppm in the assay with Tetranychus urticae [1] turned out to be 100%. In addition, the mortality at 50 ppm in the assay with Tetranychus urticae [4] worked out at 80%. Besides, the mortality at 200 ppm in the assay with Tetranychus urticae [2] was 100%.

Regarding `CCCCCC(Br)C(=O)Nc1nnc(C(F)(F)F)s1` (stereo not given), the mortality at 12.5 ppm in the assay with Tetranychus urticae [3] was determined as 0%. Also, the mortality at 500 ppm in the assay with Tetranychus urticae [1] was found to be 80%. Besides, the mortality at 50 ppm in the assay on Tetranychus urticae [4] came out at 30%. In the assay with Tetranychus urticae [2], the mortality at 200 ppm is 80%.

As for `CCc1nnc(NC(=O)C(Br)C(C)(C)C)s1` (stereo not given), the mortality at 500 ppm with Tetranychus urticae [1] came to 0%.

As to `CC(C)(C)C(Br)(Br)C(=O)Nc1nnc(C(F)(F)C(F)(F)F)s1`, the mortality at 12.5 ppm with Tetranychus urticae [3] came out at 80%. Moreover, the mortality at 500 ppm in the assay on Tetranychus urticae [1] amounted to 100%. The mortality at 50 ppm with Tetranychus urticae [4] worked out at 100%. The mortality at 200 ppm in the assay with Tetranychus urticae [2] worked out at 100%. Further, in the assay on Tetranychus urticae [5], the mortality at 3.13 ppm came to 30%.

Turning to `CC(C)(C)C(Br)C(=O)Nc1nnc(C(F)(F)C(F)(F)F)s1` (stereo not given), in the assay with Tetranychus urticae [3], the mortality at 12.5 ppm came to 30%. The mortality at 500 ppm in the assay on Tetranychus urticae [1] was found to be 100%. Besides, the mortality at 50 ppm in the assay on Tetranychus urticae [4] amounted to 80%. Besides, the mortality at 200 ppm in the assay with Tetranychus urticae [2] is 80%.

Take `CC(C)(C)C(Cl)C(=O)Nc1nnc(C(F)(F)F)s1` (stereo not given): the mortality at 12.5 ppm in the assay with Tetranychus urticae [3] turned out to be 30%. For the same compound, the mortality at 500 ppm in the assay on Tetranychus urticae [1] worked out at 100%. The mortality at 50 ppm with Tetranychus urticae [4] was 100%. Moreover, in the assay on Tetranychus urticae [2], the mortality at 200 ppm came out at 100%.

For `CCC(Br)C(=O)Nc1nnc(C(F)(F)F)s1` (stereo not given), the mortality at 500 ppm in the assay on Tetranychus urticae [1] stood at 0%.

Turning to `CCC(C)C(Br)C(=O)Nc1nnc(C(F)(F)F)s1` (stereo not given), the mortality at 12.5 ppm in the assay on Tetranychus urticae [3] came to 30%. Besides, the mortality at 500 ppm in the assay on Tetranychus urticae [1] stood at 100%. In addition, in the assay on Tetranychus urticae [4], the mortality at 50 ppm turned out to be 80%. Besides, the mortality at 200 ppm in the assay on Tetranychus urticae [2] turned out to be 100%.

As to `CC(C)(C)C(Br)C(=O)Nc1nncs1` (stereo not given), the mortality at 500 ppm with Tetranychus urticae [1] is 0%.

On to `CC(Br)C(=O)Nc1nnc(C(F)(F)F)s1` (stereo not given), for which the mortality at 500 ppm in the assay with Tetranychus urticae [1] was 0%.

With `CC(C)(C)C(Br)C(=O)Nc1nnc(C(F)(F)F)s1` (stereo not given), in the assay with Tetranychus urticae [3], the mortality at 12.5 ppm worked out at 30%. For the same compound, in the assay on Tetranychus urticae [1], the mortality at 500 ppm is 100%. Besides, the mortality at 50 ppm with Tetranychus urticae [4] was determined as 100%. The mortality at 200 ppm with Tetranychus urticae [2] was determined as 100%.

As for `CC(C)(C)C(Br)C(=O)Nc1nnc(C(F)(F)C(F)(F)C(F)(F)C(F)(F)C(F)(F)F)s1` (stereo not given), in the assay with Tetranychus urticae [1], the mortality at 500 ppm came to 0%.

In the case of `CC(C)(C)C(Br)C(=O)Nc1nnc(C(F)(F)C(F)(F)C(F)(F)C(F)(F)F)s1` (stereo not given), the mortality at 500 ppm in the assay on Tetranychus urticae [1] worked out at 0%.

Take `O=C(Nc1nnc(C(F)(F)F)s1)C(Br)C1CCCC1` (stereo not given): the mortality at 500 ppm in the assay with Tetranychus urticae [1] was determined as 30%. In the assay on Tetranychus urticae [2], the mortality at 200 ppm amounted to 0%.
